Consider one compound from PMC3148216, “A Prokaryotic S1P Lyase Degrades Extracellular S1P In Vitro and In Vivo: Implication for Treating Hyperproliferative Disorders” (PLoS ONE, 2011).

Each structure is given as a SMILES string.

In the test the target is T1, StSPL (S1P lyase from Symbiobacterium thermophilum) (Symbiobacterium thermophilum, UniProt Q67PY4).
T1 construct: gene STH1274; full-length STH1274, C-terminal His-tag, expressed in E. coli, 507 residues, 55 kDa monomer, homodimer (110 kDa); PLP-dependent, residues of both subunits form the active site
Briefly: visible spectrum of enzyme-bound cofactor, change on substrate addition. The class given is binding. Conditions: Schiff base with K311, covalent; S1P added; purified in PBS with 10 µM PLP.

T1 sequence (Q67PY4 entry or part of it): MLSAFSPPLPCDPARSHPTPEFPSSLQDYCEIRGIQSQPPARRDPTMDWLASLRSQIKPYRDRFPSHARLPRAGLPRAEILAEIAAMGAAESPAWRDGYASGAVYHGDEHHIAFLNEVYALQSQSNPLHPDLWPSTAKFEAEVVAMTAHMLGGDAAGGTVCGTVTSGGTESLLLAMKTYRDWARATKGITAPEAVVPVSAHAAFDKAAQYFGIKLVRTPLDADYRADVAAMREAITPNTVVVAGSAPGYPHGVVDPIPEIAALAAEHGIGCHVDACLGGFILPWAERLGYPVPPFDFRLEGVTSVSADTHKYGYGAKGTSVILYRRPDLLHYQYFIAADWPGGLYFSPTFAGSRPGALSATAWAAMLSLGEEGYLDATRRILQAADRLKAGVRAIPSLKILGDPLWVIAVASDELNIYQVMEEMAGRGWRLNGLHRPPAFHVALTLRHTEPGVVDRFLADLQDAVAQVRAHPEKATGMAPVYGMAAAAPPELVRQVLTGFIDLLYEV

In the case of `Cc1ncc(COP(=O)(O)O)c(C=O)c1O` [PLP, pyridoxal-5′-phosphate], the “visible spectrum of enzyme-bound cofactor, change on substrate addition” value is recorded as “recording spectrophotometric changes of the cofactor upon catalysis”.
